Assay results published in US20240042046A1, “METHODS AND COMPOUNDS FOR MODULATING HUNTINGTON'S DISEASE” (Design Therapeutics, Inc., priority 2022, published 2024).

Tests used:
[1] = system: human HTT mRNA, SNP rs362331 C allele, GM09197 fibroblasts; assay: Screening of HD molecules in GM09197 fibroblasts, allele-specific HTT mRNA by RT-PCR, C allele; format: cell-based; settings: for GM 09197 E min 48 Hr C Allele (%): Emin = lowest % HTT observed within compound concentration 0.5 nM to 1000 nM; for IC50: Homo sapiens, Fibroblast, 48-hour incubation, C allele HTT mRNA normalized to GAPDH, relative to vehicle
Protocol: (§1) Molecular Biology Toolkit: • qPCR primer probe sets: • RNA input normalization was assessed utilizing human glyceraldehyde 3-phosphate dehydrogenase (hGAPDH) TaqMan assay (ThermoFisher cat #4351370) or Human Cyclophillin ([…]) TaqMan assay (ThermoFisher cat #4351372) • Total HTT detection was assessed utilizing human Htt TaqMan assay (ThermoFisher cat #4331182) • Allele-specific detection of human HTT expression in HD cells containing the SNP rs362331C/T (Exon 50): for each assay, allele-specific probes to detect the SNP variant contained locked nucleic acid bases to improve allele discrimination, as compared to unmodified DNA probes.
(§2) • qPCR was performed using Agpath ID one-step reverse transcriptase polymerase chain reaction (RT-PCR) reagent
(§3) Screening of HD molecules methods: GM09197 and/or GM04022 fibroblasts were cultured in T175 flasks incubated at 37° C. and 5% CO2. Once confluency was reached, the media was removed, the cells were washed with 1×PBS, and cells were dissociated using TrypLE™ Express Enzyme. Media was added to the enzyme and collected into a 15-mL conical tube and centrifuged at 500×g for 5 minutes to pellet the cells. Media and enzyme were aspirated using a serological pipette. Cells were resuspended in fresh media and counted using a Countess 3 Automated Cell Counter. Cells were plated at a density of 15,000 cells/well in a tissue culture-treated polystyrene 96-well dish and incubated at 37° C. and 5% CO2 overnight. The next day, media was removed using an 8-channel aspirator. 200 μL media/well are added back into the plate. The molecules are formulated to 1 mM and are dispensed using a Multidrop™ Pico 8 Digital Dispenser. After a 48-hour incubation with compounds, media was removed from plates, cells were washed with 1×PBS, and cells were lysed in 40 μL per well guanidinium thiocyanate buffer. RNA was isolated and purified in […] glass fiber column plates using chaotropic salts. Human mtHTT, wtHTT, and GAPDH mRNA were measured via RT-PCR using the ThermoFisher QuantStudio™ 7 Flex System in 384-well format. Results of HTT levels were normalized to GAPDH mRNA levels. Normalized HTT mRNA levels were expressed relative to vehicle-treated samples to assess fold change after molecule treatment.
(§4) Emin for each compound is the lowest % HTT concentration observed within a compound concentration of 0.5 nM to 1000 nM.

[2] = system: human HTT mRNA, SNP rs362331 T allele, GM09197 fibroblasts; assay: Screening of HD molecules in GM09197 fibroblasts, allele-specific HTT mRNA by RT-PCR, T allele; format: cell-based; settings: for Gm09197 Emin 48 hr T Allele (%): Emin = lowest % HTT observed within compound concentration 0.5 nM to 1000 nM; for IC50: Homo sapiens, Fibroblast, 48-hour incubation, T allele HTT mRNA normalized to GAPDH, relative to vehicle
Protocol: as §1, §2, §3, §4

Row | SMILES | GM 09197 E min 48 Hr C Allele (%) [1] | Gm09197 Emin 48 hr T Allele (%) [2] | IC50 [1] | IC50 [2]
1 | CCS(=O)(=O)Nc1ccc(Oc2ccc(F)cc2F)c(-c2cn(C)c(=O)c3[nH]c(C(=O)Nc4ccc(OCCOCCOCCOCCOCCOCCOCCOCCOCCNC(=O)c5cc(NC(=O)c6nc(NC(=O)[C@H](N)CCNC(=O)c7cc(NC(=O)c8nc(NC(=O)CCNC(=O)c9cc(NC(=O)c%10nccn%10C)cn9C)cn8C)cn7C)cn6C)cn5C)cc4)cc23)c1 [Compound A-21] | A (A>90%) | A (A>90%) | – | –
2 | Cn1cc(NC(=O)c2nc(NC(=O)CCNC(=O)c3cc(NC(=O)c4nccn4C)cn3C)cn2C)cc1C(=O)NCCCC(=O)Nc1cn(C)c(C(=O)NCCC(=O)Nc2cc(C(=O)Nc3cn(C)c(C(=O)NCCC(=O)NCCOCCOCCOCCOCCOCCOCCOCCOCCN4C[C@H](Nc5cnn(C)c(=O)c5Br)C[C@H](c5ccccc5)C4)n3)n(C)c2)n1 [Compound A-48] | A (A>90%) | A (A>90%) | – | –
3 | CC(=O)N1c2ccc(-c3ccn(-c4ccc(OCCOCCOCCOCCOCCOCCOCCOCCOCCNC(=O)CCNC(=O)c5nc(NC(=O)c6cc(NC(=O)CCNC(=O)c7nc(NC(=O)CCCNC(=O)c8cc(NC(=O)c9nc(NC(=O)CCNC(=O)c%10cc(NC(=O)c%11nccn%11C)cn%10C)cn9C)cn8C)cn7C)cn6C)cn5C)cc4)n3)cc2[C@H](Nc2ccc(C#N)cc2)C[C@@H]1C [Compound A-59] | B (B is 90% to 80%) | B (B is 90% to 80%) | – | –
4 | CCNS(=O)(=O)c1ccc(Oc2ccc(OCCOCCOCCOCCOCCOCCOCCOCCOCCOCCOCCOCCOCCOCCOCCOCCNC(=O)CCNC(=O)c3nc(NC(=O)c4cc(NC(=O)CCNC(=O)c5nc(NC(=O)CCCNC(=O)c6cc(NC(=O)c7nc(NC(=O)CCNC(=O)c8cc(NC(=O)c9nccn9C)cn8C)cn7C)cn6C)cn5C)cn4C)cn3C)cc2F)c(-c2cn(C)c(=O)c3[nH]ccc23)c1 [Compound A-68] | A (A>90%) | C (C<80%) | – | –
5 | Cn1cc(NC(=O)c2nc(NC(=O)CCNC(=O)c3cc(NC(=O)c4nccn4C)cn3C)cn2C)cc1C(=O)NCCCC(=O)Nc1cn(C)c(C(=O)NCCC(=O)Nc2cc(C(=O)Nc3cn(C)c(C(=O)NCCC(=O)NCCOCCOCCOCCOCCOCCOCCOCCOCCOCCOCCOCCOCCOCCOCCOCCN4C[C@H](Nc5cnn(C)c(=O)c5Br)C[C@H](c5ccccc5)C4)n3)n(C)c2)n1 [Compound A-49] | A (A>90%) | A (A>90%) | – | –
6 | Cn1cc(NC(=O)c2nc(NC(=O)CCNC(=O)c3cc(NC(=O)c4nccn4C)cn3C)cn2C)cc1C(=O)NCCCC(=O)Nc1cn(C)c(C(=O)NCCC(=O)Nc2cc(C(=O)Nc3cn(C)c(C(=O)NCCC(=O)NCCOCCOCCOCCOCCN4C[C@H](Nc5cnn(C)c(=O)c5Br)C[C@H](c5ccccc5)C4)n3)n(C)c2)n1 [Compound A-47] | C (C<80%) | C (C<80%) | > 1000 nM | > 1000 nM
7 | CC(=O)Nc1c(F)cc(C(=O)NC2CCC(O)CC2)cc1O[C@@H](C)c1cccc(OCCOCCOCCOCCOCCOCCOCCOCCOCCOCCOCCOCCOCCOCCOCCOCCNC(=O)CCNC(=O)c2nc(NC(=O)c3cc(NC(=O)CCNC(=O)c4nc(NC(=O)CCCNC(=O)c5cc(NC(=O)c6nc(NC(=O)CCNC(=O)c7cc(NC(=O)c8nccn8C)cn7C)cn6C)cn5C)cn4C)cn3C)cn2C)c1 (stereo partly drawn) [Compound A-31] | B (B is 90% to 80%) | B (B is 90% to 80%) | – | –
8 | CCS(=O)(=O)Nc1ccc(Oc2ccc(F)cc2F)c(-c2cn(C)c(=O)c3[nH]c(C(=O)Nc4ccc(OCCOCCOCCOCCOCCOCCOCCOCCOCCOCCOCCOCCOCCOCCOCCOCCNC(=O)CCNC(=O)c5nc(NC(=O)c6cc(NC(=O)CCNC(=O)c7nc(NC(=O)OCCNC(=O)c8cc(NC(=O)c9nc(NC(=O)CCNC(=O)c%10cc(NC(=O)c%11nccn%11C)cn%10C)cn9C)cn8C)cn7C)cn6C)cn5C)cc4)cc23)c1 [Compound A-72] | B (B is 90% to 80%) | A (A>90%) | – | –
9 | Cc1sc2c(c1C)C(c1ccc(Cl)cc1)=N[C@@H](CC(=O)Nc1ccc(OCCOCCOCCOCCOCCOCCOCCOCCOCCNC(=O)c3cc(NC(=O)c4nc(NC(=O)c5cc(NC(=O)[C@@H](N)CCNC(=O)c6nc(NC(=O)CCNC(=O)c7cc(NC(=O)c8nccn8C)cn7C)cn6C)cn5C)cn4C)cn3C)cc1)c1nnc(C)n1-2 [Compound A-37] | B (B is 90% to 80%) | B (B is 90% to 80%) | > 1000 nM | > 1000 nM
10 | CC(=O)N1c2ccc(-c3ccn(CCOCCOCCOCCOCCOCCOCCOCCOCCOCCOCCOCCOCCOCCOCCOCCNC(=O)CCNC(=O)c4nc(NC(=O)c5cc(NC(=O)CCNC(=O)c6nc(NC(=O)CCCNC(=O)c7cc(NC(=O)c8nc(NC(=O)CCNC(=O)c9cc(NC(=O)c%10nccn%10C)cn9C)cn8C)cn7C)cn6C)cn5C)cn4C)n3)cc2[C@H](Nc2ccc(C#N)cc2)C[C@@H]1C [Compound A-56] | C (C<80%) | C (C<80%) | – | –
11 | CC(=O)Nc1c(F)cc(C(=O)N[C@H]2CC[C@H](O)CC2)cc1O[C@@H](C)c1cccc(C(=O)NCCOCCOCCOCCOCCOCCOCCOCCOCCOCCOCCOCCOCCOCCOCCOCCNC(=O)CCNC(=O)c2nc(NC(=O)c3cc(NC(=O)CCNC(=O)c4nc(NC(=O)CCCNC(=O)c5cc(NC(=O)c6nc(NC(=O)CCNC(=O)c7cc(NC(=O)c8nccn8C)cn7C)cn6C)cn5C)cn4C)cn3C)cn2C)c1 [Compound A-32] | B (B is 90% to 80%) | B (B is 90% to 80%) | – | –
12 | Cc1sc2c(c1C)C(c1ccc(Cl)cc1)=N[C@H](CC(=O)Nc1ccc(OCCOCCOCCOCCOCCOCCOCCOCCOCCOCCOCCOCCOCCOCCOCCOCCNC(=O)CCNC(=O)c3nc(NC(=O)c4cc(NC(=O)CCNC(=O)c5nc(NC(=O)CCCNC(=O)c6cc(NC(=O)c7nc(NC(=O)CCNC(=O)c8cc(NC(=O)c9nccn9C)cn8C)cn7C)cn6C)cn5C)cn4C)cn3C)cc1)c1nnc(C)n1-2 [Compound A-45] | C (C<80%) | C (C<80%) | – | –
13 | CCS(=O)(=O)Nc1ccc(Oc2ccc(F)cc2F)c(-c2cn(C)c(=O)c3[nH]c(C(=O)Nc4ccc(OCCOCCOCCOCCOCCOCCOCCOCCOCCOCCOCCOCCOCCOCCOCCOCCNC(=O)c5cc(NC(=O)c6nc(NC(=O)[C@H](N)CCNC(=O)c7cc(NC(=O)c8nc(NC(=O)CCNC(=O)c9cc(NC(=O)c%10nccn%10C)cn9C)cn8C)cn7C)cn6C)cn5C)cc4)cc23)c1 [Compound A-36] | A (A>90%) | A (A>90%) | – | –
14 | CCS(=O)(=O)Nc1ccc(Oc2ccc(F)cc2F)c(-c2cn(C)c(=O)c3[nH]c(C(=O)Nc4ccc(OCCOCCOCCOCCOCCOCCOCCOCCOCCOCCOCCOCCOCCOCCOCCOCCNC(=O)CCNC(=O)c5nc(NC(=O)c6cc(NC(=O)CCNC(=O)c7nc(NC(=O)NCCNC(=O)c8cc(NC(=O)c9nc(NC(=O)CCNC(=O)c%10cc(NC(=O)c%11nccn%11C)cn%10C)cn9C)cn8C)cn7C)cn6C)cn5C)cc4)cc23)c1 [Compound A-74] | B (B is 90% to 80%) | A (A>90%) | – | –
15 | CCNC(=O)c1cc2c(-c3cc(S(C)(=O)=O)ccc3Oc3ccc(OCCOCCOCCOCCOCCNC(=O)CCNC(=O)c4nc(NC(=O)c5cc(NC(=O)CCNC(=O)c6nc(NC(=O)CCCNC(=O)c7cc(NC(=O)c8nc(NC(=O)CCNC(=O)c9cc(NC(=O)c%10nccn%10C)cn9C)cn8C)cn7C)cn6C)cn5C)cn4C)cc3F)cn(C)c(=O)c2[nH]1 [Compound A-55] | A (A>90%) | A (A>90%) | – | –
16 | CC(=O)N1c2ccc(-c3ccn(-c4ccc(OCCOCCOCCOCCOCCOCCOCCOCCOCCOCCOCCOCCOCCOCCOCCOCCNC(=O)CCNC(=O)c5nc(NC(=O)c6cc(NC(=O)CCNC(=O)c7nc(NC(=O)CCCNC(=O)c8cc(NC(=O)c9nc(NC(=O)CCNC(=O)c%10cc(NC(=O)c%11nccn%11C)cn%10C)cn9C)cn8C)cn7C)cn6C)cn5C)cc4)n3)cc2[C@H](Nc2ccc(C#N)cc2)C[C@@H]1C [Compound A-58] | B (B is 90% to 80%) | B (B is 90% to 80%) | – | –
